Reference: publication PMC4207132 (Journal of Medicinal Chemistry, 2014)

Biological target: pVHL:EloB:EloC (VBC) complex (Homo sapiens, UniProt P40337)
Type: binding

pVHL:EloB:EloC (VBC) complex, sequence (Q15369 17-112): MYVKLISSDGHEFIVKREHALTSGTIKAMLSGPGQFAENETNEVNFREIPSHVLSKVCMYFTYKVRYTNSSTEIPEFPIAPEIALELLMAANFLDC
pVHL:EloB:EloC (VBC) complex, sequence (P40337 54-213): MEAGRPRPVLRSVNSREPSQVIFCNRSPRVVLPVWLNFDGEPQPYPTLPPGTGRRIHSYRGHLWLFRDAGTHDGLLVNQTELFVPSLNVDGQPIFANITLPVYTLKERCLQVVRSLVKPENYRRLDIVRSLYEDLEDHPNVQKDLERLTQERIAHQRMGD
pVHL:EloB:EloC (VBC) complex, sequence (Q15370 1-104, further chain): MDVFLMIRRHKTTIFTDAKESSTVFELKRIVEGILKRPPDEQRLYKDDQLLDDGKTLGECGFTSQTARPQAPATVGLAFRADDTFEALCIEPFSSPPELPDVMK

- increase in affinity compared to 5: ~20 fold
Structure (SMILES): CC(=O)N[C@H](C(=O)N1C[C@H](O)C[C@H]1C(=O)NCc1ccc(-c2scnc2C)cc1)C(C)(C)C [ligand 7, (2S,4R)-1-((S)-2-Acetamido-3,3-dimethylbutanoyl)-4-hydroxy-N-(4-(4-methylthiazol-5-yl)benzyl)pyrrolidine-2-carboxamide]
